Measurements published in article PMC4907692, “Engineering vanilloid-sensitivity into the rat TRPV2 channel” (eLife, 2016).
pKd: −log10 of the molar value. Values joined by “and” are separate entries in the source; they are usually repeats but may differ in a detail not shown here. Equal values may be shown once.

Key:
[1] = target: T1, full-length 1D4-tagged TRPV1 (Rattus norvegicus, UniProt O35433); assay: 3H-RTx binding to S. cerevisiae membranes containing 1D4-tagged TRPV1; conditions: for Hill slope (nH): membranes
T1 construct: made in house; host or cells: S. cerevisiae BJ5457, YEpHIS vector, PMA1 promoter; isolated membranes
Excerpt: The polymodal activation of TRPV1 has been widely conceptualized using allosteric models wherein binding of activators (such as vanilloids, protons, DkTx or voltage) are allosterically coupled to opening of the pore ([Brauchi et al., 2004]; [Jara-Oseguera et al., 2016]; [Matta and Ahern, 2007]). The allosteric nature of these interactions has begun to be explored using electrophysiological measurements of channel function ([Jara-Oseguera et al., 2016]; [Yao et al., 2010]), but has thus far not been investigated biochemically. We therefore tested whether binding of DkTx can enhance the affinity of TRPV1 for RTx, which would be predicted by an allosteric model wherein the two activators promote opening by binding more tightly to the open state. For these experiments we used a 1D4-tagged TRPV1 construct where expression in S. cerevisiae was driven by a constitutive promoter and we performed binding assays on yeast membranes where the vanilloid would have free access to the channel protein (see Methods). Under these conditions, we measured a Kd for RTx binding to 1D4-tagged TRPV1 of 0.6 nM under control conditions, about ten fold higher affinity than what we measured in intact cells using GFP-tagged TRPV1. When we measured the concentration-dependence of RTx binding to 1D4-tagged TRPV1 in the presence of DkTx, we observed that the tarantula toxin enhanced the affinity for RTx by about 3-fold (Figure 2A). The effects of DkTx were concentration-dependent (Figure 2B) and were observed independent of whether the binding assay was performed at 37°C (our standard temperature) or at 30°C (Figure 2A).
The full-length TRPV1 and TRPV2 channels with 1D4 affinity tags (TETSQVAPA) on their C-termini were cloned into the YEpHIS vector and expressed in the BJ5457 strain of S. cerevisiae using the strong constitutively active PMA1 promoter, as previously described ([Moiseenkova-Bell et al., 2008]). After 48 hr of expression at 30°C in YPD media, cells were harvested by centrifugation and re-suspended in PBS buffer, supplemented with complete protease inhibitor cocktail (Roche, Indianapolis, IN) and 4-amidinophenylmethanesulfonyl fluoride hydrochloride (APMSF) (Sigma-Aldrich, St. Louis, MO). Cells were broken by passing through an Avestin homogenizer at the pressure of 35 kpsi, cell lysate was cleared by centrifugation at 8,000 g for 15 min and membranes were isolated by ultracentrifugation at 190,000 g for 1 hr. Membrane pellets were re-suspended in PBS buffer supplemented with protease inhibitors and 200 mM sucrose, flash-frozen in liquid nitrogen and stored at -70°C until RTx binding measurements.
S. cerevisiae cells overexpressing TRPV1 constructs to be used in ligand binding assays on intact cells (Figure 1E,F) were grown as for small scale expression trials. 24 hr after protein induction cells were spun down at 4000g, the supernatant was removed and the pellet resuspended in 1x PBS, normalizing OD600 to 75 for each sample, and aliquoted for storage at -80°C. ^3H-RTx binding assays on cells were performed at 37°C as previously described ([Feng et al., 2015]), but where non-specific binding of RTx was measured using cells expressing GFP alone. The binding of RTx to TRPV1 and TRPV2 in membranes (e.g. Figure 2A,B and 5C) was performed at 37°C unless otherwise stated using membranes prepared from large scale protein preparations of S. cerevisiae containing rat TRPV1 and TRPV2 with a 1D4 tag expressed using a constitutive promoter as in [Moiseenkova-Bell et al., 2008]. Data for binding of RTx to membranes was corrected for non-specific binding, determined using either excess non-radioactive ligand or heat inactivation of the protein, as previously described ([Feng et al., 2015]). The TRPV1-activating double-knot toxin (DkTx) was produced recombinantly, folded in vitro and purified as previously described ([Bae et al., 2012]). Yeast membranes were incubated with DkTx solution for 1 hr at 4°C with gentle agitation prior to undertaking RTx binding assays. […]

TRPV1 S512F = target: T2, TRPV1 S512F (Rattus norvegicus, UniProt O35433, S512F); assay: Two-electrode voltage-clamp in Xenopus oocytes, TRPV1 S512F; assay type: cell-based; conditions: 100 nM RTx
T2 construct: expressed in transfected cells; host or cells: Xenopus oocytes (cRNA injection)
Excerpt: (§1) To further investigate the putative vanilloid binding pocket in TRPV1, we inspected the cryo-EM structure of TRPV1, looking for residues that are located nearby to the putative RTx density (Figure 1B; regions/residues highlighted in yellow) and that differ between TRPV1 and TRPV2 channels (Figure 3—figure supplement 1; regions highlighted in magenta). […] To quantify the contribution of each of these residues to TRPV1 channel activation by RTx under our experimental conditions, we mutated each to the corresponding residue in TRPV2. We then expressed each construct in oocytes and used the two electrode voltage-clamp technique to study activation by RTx and by the non-specific TRPV channel activator 2-APB. We recorded time courses for channel activation by each agonist while stepping the membrane potential from −60 to +60 mV every 3 s from a holding potential of 0 mV using an external recording solution containing 100 mM KCl (internal K^+ concentration in a healthy oocyte is 100 mM) (Figure 3A, left). We also recorded current-voltage (I-V) relations by stepping over a wider range of voltages in the absence and presence of activators, or in the presence of ruthenium red (RR), a non-specific inhibitor of TRP channels (Figure 3A, right). […]

TRPV1 S512F/T550L = target: T3, TRPV1 S512F/T550L (Rattus norvegicus, UniProt O35433, S512F/T550L); assay: Two-electrode voltage-clamp in Xenopus oocytes, TRPV1 S512F/T550L; assay type: cell-based; conditions: 100 nM RTx
T3 construct: expressed in transfected cells; host or cells: Xenopus oocytes (cRNA injection)
Excerpt: as §1

T1 sequence (O35433 whole entry): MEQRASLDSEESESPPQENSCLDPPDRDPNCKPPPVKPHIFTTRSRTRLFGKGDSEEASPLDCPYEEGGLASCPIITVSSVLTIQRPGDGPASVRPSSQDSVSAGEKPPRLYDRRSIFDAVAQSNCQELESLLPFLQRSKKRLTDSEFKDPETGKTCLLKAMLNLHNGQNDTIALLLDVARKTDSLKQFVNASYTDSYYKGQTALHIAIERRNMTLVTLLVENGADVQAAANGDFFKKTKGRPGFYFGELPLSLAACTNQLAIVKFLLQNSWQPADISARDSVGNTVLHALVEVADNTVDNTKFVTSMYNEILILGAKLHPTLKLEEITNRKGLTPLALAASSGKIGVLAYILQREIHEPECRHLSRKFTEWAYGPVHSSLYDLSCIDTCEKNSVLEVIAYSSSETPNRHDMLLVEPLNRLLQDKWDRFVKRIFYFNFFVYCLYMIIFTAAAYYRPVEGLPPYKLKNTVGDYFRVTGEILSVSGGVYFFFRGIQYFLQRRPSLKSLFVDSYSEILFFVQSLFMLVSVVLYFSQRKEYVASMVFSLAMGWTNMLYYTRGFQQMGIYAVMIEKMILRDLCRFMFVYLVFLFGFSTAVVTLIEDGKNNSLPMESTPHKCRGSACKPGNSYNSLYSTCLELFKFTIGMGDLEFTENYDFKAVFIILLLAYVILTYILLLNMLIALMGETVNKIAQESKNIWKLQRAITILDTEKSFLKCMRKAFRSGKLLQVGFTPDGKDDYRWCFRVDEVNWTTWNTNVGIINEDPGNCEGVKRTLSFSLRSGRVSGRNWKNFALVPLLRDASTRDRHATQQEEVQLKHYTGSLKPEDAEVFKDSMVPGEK
T2 sequence (O35433 whole entry S512F): as the sequence (O35433 whole entry) above, with S512F counted along it
T3 sequence (O35433 whole entry S512F/T550L): as the sequence (O35433 whole entry) above, with S512F, T550L counted along it

C=C(C)[C@]12C[C@@H](C)[C@@]34O[C@](Cc5ccccc5)(O[C@@H]1[C@@H]3C=C(COC(=O)Cc1ccc(O)c(OC)c1)C[C@]1(O)C(=O)C(C)=C[C@@H]41)O2 [RTx, resiniferatoxin]
pKd ([1]; Kd of 3H-RTx binding (Hill fit)): 9.28 and 9.10
Hill slope (nH) ([1]; control (no DkTx), 30°C): 1.1
Hill slope (nH) ([1]; control (no DkTx), 37°C): 1.24
Hill slope (nH) ([1]; in the presence of DkTx (0.7 µM), 30°C): 1
Hill slope (nH) ([1]; in the presence of DkTx (0.7 µM), 37°C): 0.92
dissociation of RTx after removal from the recording chamber (TRPV1 S512F): could readily see dissociation of RTx
channel activation by RTx (TRPV1 S512F/T550L): lost sensitivity
